Results from ChEMBL document CHEMBL5465560, “Selectivity Literature for EUbOPEN Chemogenomic Library” (2024).
One block for each compound: values may come before it.

Tests used:
[1] = target: T1, Activin receptor type-1B (Homo sapiens) (UniProt P36896); test: Selectivity interaction (Ambit KINOMEscan and KiNATiv profiling in Jurkat cells) EUB0000090b ACVR1B; type: cell-based; details: at 1 µM
T1 sequence (whole entry): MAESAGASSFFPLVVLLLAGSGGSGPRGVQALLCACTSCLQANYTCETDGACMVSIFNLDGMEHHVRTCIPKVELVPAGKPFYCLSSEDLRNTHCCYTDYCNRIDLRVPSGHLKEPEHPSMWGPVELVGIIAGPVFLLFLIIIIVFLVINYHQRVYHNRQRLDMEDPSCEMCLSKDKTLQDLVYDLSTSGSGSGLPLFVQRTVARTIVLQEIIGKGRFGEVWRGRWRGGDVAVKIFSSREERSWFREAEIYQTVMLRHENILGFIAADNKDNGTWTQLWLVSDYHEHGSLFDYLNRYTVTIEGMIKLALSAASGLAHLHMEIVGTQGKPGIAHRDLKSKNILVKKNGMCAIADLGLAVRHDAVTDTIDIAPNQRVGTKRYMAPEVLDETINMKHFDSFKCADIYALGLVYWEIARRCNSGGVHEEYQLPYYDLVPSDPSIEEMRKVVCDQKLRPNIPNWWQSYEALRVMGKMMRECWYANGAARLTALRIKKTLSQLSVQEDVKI

[2] = target: Serine/threonine-protein kinase 16 (Homo sapiens, UniProt O75716); test: Selectivity interaction (ActivX KiNativ screen (kinase selectivity in THP-1 cell lysates)) EUB0000639a STK16; type: subcellular; details: lysate, at 0.2 µM
Serine/threonine-protein kinase 16, sequence (O75716 whole entry): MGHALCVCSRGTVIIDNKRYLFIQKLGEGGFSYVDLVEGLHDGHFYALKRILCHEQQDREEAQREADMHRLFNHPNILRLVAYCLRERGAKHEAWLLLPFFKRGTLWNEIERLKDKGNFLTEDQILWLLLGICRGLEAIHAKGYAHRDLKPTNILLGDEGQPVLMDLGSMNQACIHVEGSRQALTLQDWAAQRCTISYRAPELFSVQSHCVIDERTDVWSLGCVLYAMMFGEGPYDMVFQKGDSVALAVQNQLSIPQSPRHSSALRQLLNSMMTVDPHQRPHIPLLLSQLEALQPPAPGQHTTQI

[3] = target: T2, Histone-arginine methyltransferase CARM1 (Homo sapiens) (UniProt Q86X55); details: KMS-27, at 3 µM
T2 sequence (whole entry): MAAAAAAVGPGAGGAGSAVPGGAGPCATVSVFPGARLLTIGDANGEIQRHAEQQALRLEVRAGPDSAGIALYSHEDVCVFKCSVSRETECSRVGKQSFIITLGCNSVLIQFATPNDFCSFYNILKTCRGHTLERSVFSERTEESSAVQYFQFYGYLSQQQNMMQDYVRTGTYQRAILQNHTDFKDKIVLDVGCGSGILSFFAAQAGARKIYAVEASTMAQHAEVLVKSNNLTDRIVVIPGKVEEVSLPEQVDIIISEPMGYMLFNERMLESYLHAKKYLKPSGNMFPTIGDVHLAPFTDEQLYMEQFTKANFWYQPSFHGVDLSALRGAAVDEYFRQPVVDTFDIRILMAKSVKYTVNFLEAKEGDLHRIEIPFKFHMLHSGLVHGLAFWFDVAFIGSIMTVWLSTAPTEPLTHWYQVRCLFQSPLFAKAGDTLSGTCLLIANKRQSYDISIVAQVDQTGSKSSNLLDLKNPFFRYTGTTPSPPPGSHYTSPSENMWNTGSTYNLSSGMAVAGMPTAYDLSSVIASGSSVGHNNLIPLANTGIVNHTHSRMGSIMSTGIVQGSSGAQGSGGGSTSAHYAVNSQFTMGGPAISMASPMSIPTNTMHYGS

[4] = target: T3, Cyclin-dependent kinase-like 2 (Homo sapiens) (UniProt Q92772); test: Selectivity interaction (KinomeScan (DiscoverX)) EUB0001619a CDKL2; details: at 1 µM
T3 sequence (whole entry): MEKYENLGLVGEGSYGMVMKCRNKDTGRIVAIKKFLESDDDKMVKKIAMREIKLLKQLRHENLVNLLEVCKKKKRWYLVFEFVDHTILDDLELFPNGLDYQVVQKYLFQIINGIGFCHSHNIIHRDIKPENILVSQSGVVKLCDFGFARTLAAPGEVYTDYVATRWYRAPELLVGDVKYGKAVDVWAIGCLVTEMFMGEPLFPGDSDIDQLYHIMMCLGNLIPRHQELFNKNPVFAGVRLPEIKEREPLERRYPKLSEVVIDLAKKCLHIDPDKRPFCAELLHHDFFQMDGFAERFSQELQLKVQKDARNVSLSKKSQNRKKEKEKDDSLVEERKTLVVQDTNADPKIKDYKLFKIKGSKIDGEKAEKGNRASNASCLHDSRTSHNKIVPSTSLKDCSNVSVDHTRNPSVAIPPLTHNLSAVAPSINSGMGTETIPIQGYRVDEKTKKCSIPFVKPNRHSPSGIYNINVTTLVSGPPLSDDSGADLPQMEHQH

[5] = target: Dual specificity mitogen-activated protein kinase kinase 1 (Homo sapiens, UniProt Q02750); test: Selectivity interaction (Kinase panel (DSF assay)) EUB0001559a MAP2K1
Dual specificity mitogen-activated protein kinase kinase 1, sequence (Q02750 whole entry): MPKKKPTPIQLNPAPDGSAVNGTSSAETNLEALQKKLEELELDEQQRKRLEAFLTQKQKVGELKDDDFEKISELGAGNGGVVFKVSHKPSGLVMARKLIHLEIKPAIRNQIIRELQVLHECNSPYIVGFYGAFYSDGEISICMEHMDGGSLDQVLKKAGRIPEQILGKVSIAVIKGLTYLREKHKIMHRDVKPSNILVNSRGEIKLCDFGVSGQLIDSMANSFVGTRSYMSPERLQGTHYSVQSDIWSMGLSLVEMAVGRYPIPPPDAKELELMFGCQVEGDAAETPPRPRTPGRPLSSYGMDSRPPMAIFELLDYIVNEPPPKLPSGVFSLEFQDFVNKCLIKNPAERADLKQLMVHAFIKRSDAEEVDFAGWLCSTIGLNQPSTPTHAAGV

[6] = target: T4, Ephrin type-B receptor 6 (Homo sapiens) (UniProt O15197); test: Selectivity interaction (KinomeScan (DiscoverX)) EUB0000607a EPHB6; details: at 10 µM
T4 sequence (whole entry): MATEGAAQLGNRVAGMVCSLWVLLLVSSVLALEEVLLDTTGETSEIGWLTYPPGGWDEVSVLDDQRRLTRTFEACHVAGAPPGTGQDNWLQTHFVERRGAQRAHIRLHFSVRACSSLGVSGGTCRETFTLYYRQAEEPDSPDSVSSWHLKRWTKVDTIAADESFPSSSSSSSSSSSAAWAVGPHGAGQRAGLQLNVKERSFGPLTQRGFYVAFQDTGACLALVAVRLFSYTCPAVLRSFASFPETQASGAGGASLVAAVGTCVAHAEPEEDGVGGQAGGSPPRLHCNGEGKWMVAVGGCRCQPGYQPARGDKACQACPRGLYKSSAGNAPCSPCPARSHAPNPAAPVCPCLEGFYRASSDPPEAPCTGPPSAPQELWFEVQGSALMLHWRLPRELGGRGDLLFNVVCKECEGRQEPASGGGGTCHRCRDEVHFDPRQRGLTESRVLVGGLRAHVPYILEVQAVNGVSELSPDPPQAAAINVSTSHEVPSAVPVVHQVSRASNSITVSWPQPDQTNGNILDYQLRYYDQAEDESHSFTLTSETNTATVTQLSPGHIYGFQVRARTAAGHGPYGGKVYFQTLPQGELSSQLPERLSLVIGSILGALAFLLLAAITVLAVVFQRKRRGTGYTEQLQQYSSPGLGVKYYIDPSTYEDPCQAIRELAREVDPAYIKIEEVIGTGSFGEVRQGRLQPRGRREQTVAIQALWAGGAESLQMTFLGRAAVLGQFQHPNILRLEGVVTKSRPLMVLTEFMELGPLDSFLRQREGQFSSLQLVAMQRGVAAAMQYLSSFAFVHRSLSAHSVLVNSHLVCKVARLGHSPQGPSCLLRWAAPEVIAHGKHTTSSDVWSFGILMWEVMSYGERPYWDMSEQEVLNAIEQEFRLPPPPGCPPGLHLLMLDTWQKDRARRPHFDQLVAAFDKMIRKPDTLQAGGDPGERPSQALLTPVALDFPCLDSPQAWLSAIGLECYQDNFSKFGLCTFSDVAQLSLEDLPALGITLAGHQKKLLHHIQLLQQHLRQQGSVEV

Compound: CN(C)C/C=C/C(=O)Nc1ccc(C(=O)N2CCCC(Nc3ncc(Cl)c(-c4c[nH]c5ccccc45)n3)C2)cc1 (stereo unspecified)
- % of control [1]: 96%

Compound: CNCCN1CCC(c2cc(CN(C)C(=O)c3cccc(Oc4ccccc4)c3)ccn2)CC1
- % of growth rate [3]: -17.2%

Compound: N#Cc1cccc(-c2c[nH]c3ncnc(N4CCOCC4)c23)c1
- % of control [4]: 98%

Compound: CNC(=O)Nc1ccc(-c2nc(N3CC4CCC(C3)O4)c3cnn(C4CCC5(CC4)OCCO5)c3n2)cc1
- % of control [6]: 83%

Other lines, results leading:

- % of inhibition [2]: 35.1%
Compound: CC[C@@H]1[C@H](F)C(=O)N[C@@H]1COc1nccc2cc(C(N)=O)c(OC)cc12 [ZIMLOVISERTIB]

- dTM [5]: -0.8 K
Compound: CN(C(=O)c1cnn2cccnc12)c1cc2c(cc1N1CCOCC1)C(=O)N(C[C@@H](F)C(C)(C)O)C2
